The text below walks through data of patent publication US11149028B2, “Methods for treating melanoma using small molecules” (NOVA SOUTHEASTERN UNIVERSITY, priority 2016, dated 2021).

The subject of data set [1] is A549 non-small cell lung cancer cell line. The data set is described as follows: CellTiter-Glo viability assay, A549 cells. The class given is cell-based. The note with it: individual compounds. The protocol: (§1) Mixture libraries were solubilized in 3% DMSO/H2O and added to polypropylene 384 well plates (Greiner cat #781280). 1,250 CHO-K1, A549, or M14 cells were plated in 384-well plates in 5 μL of serum-free media (F12 for CHO-K1 and A549, DMEM for M14). Test compounds and gefitinib (pharmacological assay control) were prepared as 10-point, 1:3 serial dilutions starting at 300 then added to the cells (5 μL per well) using the Biomek NX^P. Plates were incubated for 72 h at 37° C., 5% CO2 and 95% RH. After incubation, 5 μL of CellTiter-Glo® (Promega cat #: G7570) were added to each well, and incubated for 15 min at room temperature. Luminescence was recorded using a Biotek Synergy H4 multimode microplate reader. Viability was expressed as a percentage relative to wells containing media only (0%) and wells containing cells treated with 1% DMSO only (100%). Three parameters were calculated on a per-plate basis: (a) the signal-to-background ratio (SB); (b) the coefficient for variation [CV; CV=(standard deviation/mean)×100)] for all compound test wells; and (c) the Z′-factor (18). The IC50 value of the pharmacological control (gefitinib, LC Laboratories #G-4408) was also calculated to ascertain the assay robustness. Time course viability assay was performed as described for library screening with luminescence measurements performed at 4, 24, 48, and 72 h.
For orientation: ATP-based viability assays read luminescence as a measure of living cells.

Data set [2] has as its system CHO-K1 cells. As to the kind of experiment: CellTiter-Glo viability assay, CHO-K1 healthy control cells. The class given is cell-based. The note with it: individual compounds. Here is the method:
as §1

Data set [3] concerns SKMEL-28 melanoma cell line. The data set is described as follows: Hexosaminidase viability assay, SKMEL-28. In kind it is cell-based. To be noted: Homo sapiens, SK-MEL-28; for IC50: V600EBRAF mutation. Here is the method:
Hexosaminidase assay was used to study the effects of 2155-14 and 2155-18 on cell viability or cell proliferation of both B16/F-10 and SKMEL-28 cells
(Landegren, U. Measurement of cell numbers by means of the endogenous enzyme hexosaminidase. Applications to detection of lymphokines and cell surface antigens. J Immunol Methods 1984, 67, 379-388). In brief, cells were plated in 96 well plates, grown overnight and treated the next day with increasing concentrations of compounds (0-50 μM) for 48 h. After 48 h of treatment, media was discarded and cells were washed with PBS to remove residual media from wells. Hexosaminidase substrate (75 μL) (Sigma Aldrich; cat #N9376) was added to each well, incubated at 37° C. for 30 min followed by addition of 112.5 μL of developer into each well. Final absorbance was measured at λ=405 nm. Cell growth was calculated as percent viability=[([…])×100], where A and B were the absorbance of treated and control cells, respectively.

For data set [4], the system named is HEPG2 cell line. The data set is described as follows: Viability of HEPG2 liver cancer cells. In kind it is cell-based.
The test system of data set [5] is MDA-MB-231 cell line. As to the kind of experiment: Viability of MDA-MB-231 breast cancer cells. The class given is cell-based.
In data set [6] the target is HDAC2 (Homo sapiens, UniProt Q92769). As to the kind of experiment: HDAC inhibition testing. To be noted: up to 100 μM. The class given is biochemical.
Chain of HDAC2 (Q92769 whole entry): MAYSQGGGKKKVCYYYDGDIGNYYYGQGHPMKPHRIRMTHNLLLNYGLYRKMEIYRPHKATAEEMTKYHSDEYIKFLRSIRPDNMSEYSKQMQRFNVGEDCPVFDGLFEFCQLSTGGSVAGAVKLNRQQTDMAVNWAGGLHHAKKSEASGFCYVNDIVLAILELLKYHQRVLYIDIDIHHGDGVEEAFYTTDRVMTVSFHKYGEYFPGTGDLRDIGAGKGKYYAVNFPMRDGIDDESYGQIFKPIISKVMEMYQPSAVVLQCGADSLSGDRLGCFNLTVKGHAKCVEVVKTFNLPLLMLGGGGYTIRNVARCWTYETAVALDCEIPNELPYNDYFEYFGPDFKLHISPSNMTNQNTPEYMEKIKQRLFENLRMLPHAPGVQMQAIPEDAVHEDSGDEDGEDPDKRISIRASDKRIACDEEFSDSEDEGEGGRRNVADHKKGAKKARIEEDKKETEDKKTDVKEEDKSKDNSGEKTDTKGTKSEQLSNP
The target of data set [7] is HDAC6 (Homo sapiens, UniProt Q9UBN7). As to the kind of experiment: HDAC inhibition testing. In kind it is biochemical. The note with it: up to 100 μM.
Chain of HDAC6 (Q9UBN7 whole entry, species assumed): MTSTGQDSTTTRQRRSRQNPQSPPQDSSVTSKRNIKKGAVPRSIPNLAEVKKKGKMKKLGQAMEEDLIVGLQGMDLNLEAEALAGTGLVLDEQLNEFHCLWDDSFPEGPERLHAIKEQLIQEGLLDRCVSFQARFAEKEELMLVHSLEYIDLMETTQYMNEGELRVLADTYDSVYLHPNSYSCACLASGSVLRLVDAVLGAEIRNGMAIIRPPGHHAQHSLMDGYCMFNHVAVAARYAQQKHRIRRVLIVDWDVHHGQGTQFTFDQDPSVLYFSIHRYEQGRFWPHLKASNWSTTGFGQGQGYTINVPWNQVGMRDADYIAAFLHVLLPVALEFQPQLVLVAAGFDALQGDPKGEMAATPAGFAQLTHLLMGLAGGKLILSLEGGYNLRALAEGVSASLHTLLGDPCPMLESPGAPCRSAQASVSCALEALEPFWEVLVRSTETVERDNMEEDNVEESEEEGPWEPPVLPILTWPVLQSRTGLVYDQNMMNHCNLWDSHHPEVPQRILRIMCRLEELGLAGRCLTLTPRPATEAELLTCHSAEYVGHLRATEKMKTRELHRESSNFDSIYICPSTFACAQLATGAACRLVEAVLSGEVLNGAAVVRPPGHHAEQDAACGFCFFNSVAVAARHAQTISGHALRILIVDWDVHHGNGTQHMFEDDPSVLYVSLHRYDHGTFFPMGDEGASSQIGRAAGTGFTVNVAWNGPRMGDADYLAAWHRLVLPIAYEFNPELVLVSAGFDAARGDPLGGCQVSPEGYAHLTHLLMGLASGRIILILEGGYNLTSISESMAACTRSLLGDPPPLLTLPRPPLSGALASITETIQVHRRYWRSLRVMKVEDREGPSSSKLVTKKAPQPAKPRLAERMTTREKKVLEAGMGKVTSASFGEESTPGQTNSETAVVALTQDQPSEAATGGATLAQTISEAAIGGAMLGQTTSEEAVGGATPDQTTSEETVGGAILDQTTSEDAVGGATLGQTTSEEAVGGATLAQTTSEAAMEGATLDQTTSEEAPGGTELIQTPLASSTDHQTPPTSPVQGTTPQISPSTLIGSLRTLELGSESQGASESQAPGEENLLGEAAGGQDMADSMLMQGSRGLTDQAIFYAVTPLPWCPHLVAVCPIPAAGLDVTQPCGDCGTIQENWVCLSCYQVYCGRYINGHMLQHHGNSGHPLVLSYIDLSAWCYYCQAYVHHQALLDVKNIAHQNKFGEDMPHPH
For data set [8], the system named is mouse embryonic fibroblasts (MEF). As to the kind of experiment: Viability of mouse embryonic fibroblasts. The class given is cell-based. Here is the method:
Cells were plated in 384-well plates in 8 μL of media. Test compounds and dabrafenib (pharmacological assay control) were prepared as 10-point, 1:3 serial dilutions starting at 300 μM, then added to the cells (4 μL per well) using the Biomek Plates were incubated for 72 h at 37° C., 5% CO2 and 95% relative humidity. After incubation, 4 μL of CellTiter-Glo® (Promega cat #: G7570) were added to each well, and incubated for 15 min at room temperature. Luminescence was recorded using a Biotek Synergy H4 multimode microplate reader. Viability was expressed as a percentage relative to wells containing media only (0%) and wells containing cells treated with DMSO only (100%). Three parameters were calculated on a per-plate basis: (a) the signal-to-background ratio (SB); (b) the coefficient for variation [CV; CV=(standard deviation/mean)×100)] for all compound test wells; and (c) the Z′-factor (18). The IC50 value of the pharmacological control (dabrafenib, LC Laboratories #G-4408) was also calculated to ascertain the assay robustness. In case of viability rescue assays, cells were pre-treated with caspase, calpain, and autophagy inhibitors for 1-3 h before addition of test compounds. Time course viability assay was done with luminescence measurements performed at 4, 24, 48, and 72 h.

Data set [9] has as its system caspase 8 in WM266-4 cells. As to the kind of experiment: Caspase 8 activity assay. The class given is cell-based, human. To be noted: 0 and 4 h. The protocol:
(§2) WM266-4 and M14 cells were plated in 384-well plates in 5 μL of complete media (EMEM and RPMI-1640, respectively). 5 μL of 200 μM 2155-14 and 2155-18 were added to the cells. Plates were incubated at 37° C., 5% CO2 and 95% relative humidity for various lengths of time. After incubation, 5 μL of caspase 3/7, caspase 8, and caspase 9 Glo® reagent (Promega cat #: G7570) were added to each well, and incubated for 15 min at room temperature. Luminescence was recorded using a Biotek Synergy H4 multimode microplate reader.

Data set [10] has as its system caspase 9 in WM266-4 cells. The data set is described as follows: Caspase 9 activity assay. To be noted: 0 and 4 h. The class given is cell-based, human. The protocol:
as §2

Data set [11] concerns LC3-II and beclin-1 in WM266-4 cells. The data set is described as follows: Western blotting for LC3 and beclin-1, WM266-4. To be noted: for LC3 and beclin-1, early time point: 30 min, 5-50 μM. The class given is cell-based, human. The procedure, abridged: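 WM266-4 and M14 melanoma cells, grown in E-MEM or RPMI-1640 with 10% FBS, were analysed by immunoblot with chemiluminescent detection. Band intensities were normalised to β-actin and expressed as fold of untreated control.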

Each structure is given as a SMILES string. “Also recorded” adds a separate entry of the source.

By IC50 is commonly meant the concentration that gives 50% inhibition. Consider `O=C1NC[C@H](Cc2ccccc2)N(C[C@@H]2CCCN2C[C@@H](CC2CCCCC2)N2C[C@H](Cc3ccc(O)cc3)N(CCc3ccccc3)C(=O)C2=O)C1=O` [Compound 2155-14, (S)-1((R)-1((S)-2-(((S)-6-benzyl-2,3-dioxopiperazin-1-yl)methyl)pyrrolidin-1-yl)-3-cyclohexylpropan-2-yl)-5-(4-hydroxybenzyl)-4-phenethylpiperazine-2,3-dione], for which the IC50 in data set [1] (Homo sapiens, A549) was above 100 µM; in data set [2] (Cricetulus griseus, CHO-K1), above 100 µM; in data set [3], 563 ± 40 nM. For the same compound, the cytotoxicity at 10 µM in data set [3] (starting at 10 μM, read-out: inhibition of SKMEL-28 viability) was around 100%. Also, in [4], the “selectivity against HEPG2 cell line” value is listed as “selective”. Besides, the “selectivity against MDA-MB-231 cell line” value in data set [5] was “selective”. Also, the “HDAC2 inhibition” value in data set [6] is on record as “lack of HDAC inhibition”. The “HDAC6 inhibition” value in [7] is listed as “lack of HDAC inhibition”. In data set [8], the “toxicity to mouse embryonic fibroblasts” value was “not toxic”. Moreover, the “caspase 8 signal vs untreated control” value in data set [9] was “significantly different from untreated control cells”. In addition, the “caspase 9 signal vs untreated control” value in data set [10] is “significantly different from untreated control cells”. In data set [11], the “LC3 and beclin-1, early time point” value was “autophagy potentiation as compared to the untreated control was not observed; also recorded: No statistical significance between untreated control and test conditions”. For the same compound, the “LC3-II level, WM266-4” value in data set [11] (24 h, 5-200 μM) is reported as “Dose dependent increase”. The “beclin-1 level, WM266-4” value in data set [11] (24 h, 5-200 μM) is listed as “Dose dependent increase”.
Consider `O=C1NC[C@H](Cc2ccccc2)N(C[C@@H]2CCCN2C[C@H](Cc2ccccc2)N2C[C@H](Cc3ccc(O)cc3)N(CCC34CC5CC(CC(C5)C3)C4)C(=O)C2=O)C1=O` [Compound 2155-18, (S)-4-(2-(adamantan-1yl)ethyl)-1-((S)-1-((S)-2-(((S)-6-benzyl-2,3-dioxopiperazin-1-yl)methyl)pyrrolidin-1-yl)-3-phenylpropan-2-yl)-5-(4-hydroxybenzyl)piperazine-2,3-dione], for which, in data set [1], the “activity towards A549 cells” value was “improved activity”. Also, in data set [2], the “selectivity over CHO-K1 healthy control cells” value was “maintaining selectivity for CHO-K1 cells”. Moreover, the IC50 in data set [3] worked out at 890 ± 70 nM. Further, the “selectivity against HEPG2 cell line” value in data set [4] is given as “selective”. For the same compound, in data set [5], the “selectivity against MDA-MB-231 cell line” value is on record as “selective”. Besides, the “HDAC2 inhibition” value in [6] was “lack of HDAC inhibition”. In addition, the “HDAC6 inhibition” value in [7] is on record as “lack of HDAC inhibition”. Further, the “toxicity to mouse embryonic fibroblasts” value in data set [8] is reported as “not toxic”. In addition, in [9], the “caspase 8 signal vs untreated control” value was “significantly different from untreated control cells”. In addition, in data set [10], the “caspase 9 signal vs untreated control” value is “significantly different from untreated control cells”. Moreover, the “LC3 and beclin-1, early time point” value in data set [11] was “No statistical significance between untreated control and test conditions”. The “LC3-II level, WM266-4” value in data set [11] (24 h, 5-200 μM) is “dose dependent inhibitory effect on basal autophagy”.
